# Measured values: patent US20070274947A1, “Antisense Oligonucleotides Directed to Ribonucleotide Reductase R1 and Uses Thereof in the Treatment of Cancer” (priority 2003, published 2007)
# Assays:
# [1] = system: HT-29 human colon cancer cells; assay: HT-29 colon tumor growth in CD-1 nude mice; assay type: in vivo; conditions: SEQ ID NO:1 10 mg/kg every other day
# Protocol: A. HT-29 human colon cancer cells (3×10^6 cells in 100 μl of PBS) were subcutaneously injected into the right flank of 6-7 weeks old female CD-1 nude mice. After the size of tumor reached an approximate volume of 50 mm^3, 4 days post tumor cell injection, SEQ ID NO:1 was administered by bolus infusion into the tail vein every other day at 10 mg/kg. Control animals received saline alone for the same period. Antitumor effect of SEQ ID NO:1 was further compared to that of mitomycin C alone or that of SEQ ID NO:1 in combination with mitomycin C. Mitomycin C was administered intravenously at days 4, 11 and 18 with a dose of 3.5 mg/kg/week, one hour after the treatments with SEQ ID NO:1. All treatments were stopped at day 22. A day after the last treatment, tumors were excised from the animals and their weights were measured (FIG. 13A). […] The delay in tumor growth achieved with SEQ.
# B. HT-29 human colon cancer cells (3×10^6 cells in 100 μl of PBS) were subcutaneously injected into the right flank of 5-6 week old female CD-1 nude mice. After the size of tumor reached an approximate volume of 100 mm^3, 7 days post tumor cell injection, SEQ ID NO:1 was administered by bolus infusion into the tail vein every other day at 10 mg/kg. Control animals received saline alone for the same period. Antitumor effect of SEQ ID NO:1 was further compared to that of CPT-11 alone or that of SEQ ID NO:1 in combination with CPT-11. CPT-11 was administered intraperitoneally for 5 days in a row from day 7-12 with a dose of 20 mg/kg in 100 μl saline. All treatments were stopped at day 32. A day after the last treatment, tumors were excised from the animals and their weights were measured (FIG. 13B).
# [2] = system: MDA-CDDP-S4 human in vivo-selected Cisplatin-resistant breast adenocarcinoma cells; assay: Cisplatin-resistant breast adenocarcinoma MDA-CDDP-S4 growth in SCID mice; conditions: SCID mice, fat pad; SEQ ID NO:1 10 mg/kg every other day; Cisplatin 4 mg/kg, Taxol 10 mg/kg i.v. weekly for three weeks
# Protocol: MDA-CDDP-S4 human in vivo-selected Cisplatin-resistant breast adenocarcinoma cells MDA231/CDDPs4) (4×10^6 cells in 100 μl of PBS) were injected into the fat pad (inside of right leg) of 6-7 weeks old female SCID mice. After the size of tumor reached an approximate volume of 100 mm^3, 7-9 days post tumor cell injection, SEQ ID NO:1 was administered by bolus infusion into the tail vein every other day at 10 mg/kg. Control animals received saline alone for the same period. Antitumor effect of SEQ ID NO:1 was further compared to that of Cisplatin or Taxol alone (FIG. 14A) and in combination as indicated in the FIGS. 14B, 14C and 14D. Cisplatin was administered intravenously once a week for three weeks at a dose of 4 mg/kg. Taxol was administered intravenously once a week for three weeks at a dose of 10 mg/kg. Antitumor activities were estimated by the inhibition of tumor volume, which was measured with caliper and each point represents mean tumor volume calculated from 10 animals per experimental group (FIG. 14C). At the end of the study animals were sacrificed, tumor weights taken and mean tumor weights are indicated. […] As expected, treatment with Cisplatin during the same period was ineffective against Cisplatin-resistant tumor.
# [3] = system: MDA-MB435-To.1 human Taxol-resistant breast adenocarcinoma cells; assay: Taxol-resistant breast adenocarcinoma MDA-MB435-To.1 growth in SCID mice; assay type: in vivo
# Protocol: MDA-MB435-To.1 human Taxol-resistant breast adenocarcinoma cells (4×10^6 cells in 100 μl of PBS) were injected into the fat pad (inside of right leg) of 6-7 weeks old female SCD mice. After the size of tumor reached an approximate volume of 100 mm^3, 20 days post tumor cell injection, SEQ ID NO:1 was administered by bolus infusion into the tail vein every other day at 10 mg/kg 15 times. Control animals received saline alone for the same period. Antitumor effect of SEQ ID NO:1 was further compared to that of Cisplatin or Taxol alone (FIG. 15A). Cisplatin was administered intravenously once a week for four weeks at a dose of 4 mg/kg. Taxol was administered intravenously once a week for four weeks at a dose of 20 mg/kg. Antitumor activities were estimated by the inhibition of tumor volume, which was measured with caliper (FIG. 15B). Each point represents mean tumor volume calculated from 9-10 animals per experimental group. […] As expected, treatment with Taxol during the same period was ineffective against Taxol-resistant tumor.
# MDA-MB435-To.1 human Taxol-resistant breast adenocarcinoma cells (4×10^6 cells in 100 μl of PBS) were injected into the fat pad (inside of right leg) of 6-7 weeks old female CB-17 SCID mice. After the size of tumor reached an approximate volume of 100 mm^3, 17 days post tumor cell injection, SEQ ID NO:1 was administered by bolus infusion into the tail vein every other day at 10 mg/kg. Control animals received saline alone for the same period. Antitumor effect of SEQ ID NO:1 was compared to that of Cisplatin alone and in combination. Cisplatin was administered intravenously once a week for four weeks at a dose of 4 mg/kg. Antitumor activities were estimated by the inhibition of tumor volume, which was measured with caliper (FIG. 15B). Each point represents mean tumor volume calculated from 10 animals per experimental group. At the end of the study the animals were sacrificed and tumors weighed (FIG. 15C).
# [4] = system: Human taxol-resistant promyelocytic leukemia cells (HL-60); assay: Taxol-resistant promyelocytic leukemia (HL-60) growth in SCID mice; assay type: in vivo; conditions: SEQ ID NO:1 10 mg/kg i.v. every other day, taxol 10 mg/kg i.p. once a week
# Protocol: Human taxol-resistant promyelocytic leukemia cells (HL-60) (7×10^6 cells in 100 μl of PBS) were injected into the right flank of 6-7 weeks old female SCID mice. After the size of tumor reached an approximate volume of 100 mm^3, 10 days post tumor cell injection, SEQ ID NO:1 was administered by bolus infusion into the tail vein every other day at 10 mg/kg. Control animals received saline alone for the same period. The anti-tumor effect of SEQ ID NO:1 was further compared to that of taxol. Taxol was administered i.p. once a week at a dose of 10 mg/kg. Anti-tumor activity was estimated by the inhibition of tumor volume, which was measured with caliper (FIG. 17A). Each point represents mean tumor volume calculated from 10 animals per experimental group. In addition animals were sacrificed and tumor weights taken at the end of the study.
# [5] = system: DU145 human prostatic cancer cells; assay: DU145 prostate tumor growth in SCID mice; assay type: in vivo
# Protocol: DU145 human prostatic cancer cells (1×10^7 cells in 100 μl of PBS) were subcutaneously injected into the right flank of 6-7 week old male SCID mice. After the size of the tumors reached an approximate volume of 50 mm^3, 13 days post tumor cell injection, SEQ ID NO:1 was administered by bolus infusion into the tail vein every other day at 10 mg/kg. Control animals received saline alone for the same period. Treatments lasted for 30 days thereafter. Antitumor activities were estimated by the inhibition of tumor volume, which was measured with a caliper on nine different occasions over 30-day period. Each point represents mean tumor volume calculated from 5 animals per experimental group.
# In both experiments, DU145 human prostatic cancer cells (1×10^7 cells in 100 μl of PBS) were subcutaneously injected into the right flank of 6-7 weeks old male SCID mice. After the size of tumor reached an approximate volume of 50 mm^3, 13 (upper panel) or 11 (lower panel) days post tumor cell injection, SEQ ID NO:1 was administered by bolus infusion into the tail vein every other day at 10 mg/kg 15 times (upper panel) or 14 times (lower panel), respectively. Control animals received saline alone for the same period. Antitumor effect of SEQ ID NO:1 was further compared to that of mitoxantrone (novantrone®) alone or in combination. Mitoxantrone was administered intravenously once at the beginning of the treatments at a dose of 2 mg/kg (upper panel) or once a week for four weeks at a reduced dose of 0.8 mg/kg (lower panel). All treatments were stopped at day 42 (upper panel) or 38 (lower panel), respectively. A day after the last treatment, tumors were excised from the animals and their weights were measured.
# [6] = first experiment, start 20 days post injection, SEQ ID NO:1 10 mg/kg 15 times, Cisplatin 4 mg/kg, Taxol 20 mg/kg weekly for four weeks
smiles,measurement,setting,value
"CCc1c2c(nc3ccc(OC(=O)N4CCC(N5CCCCC5)CC4)cc13)-c1cc3c(c(=O)n1C2)COC(=O)[C@]3(O)CC [CPT-11, Irinotecan, reference compound]",tumor weight / tumor growth,"[1]; FIG. 13B, CPT-11 20 mg/kg i.p. 5 days, stopped day 32",inhibitory effects
"N.N.[Cl][Pt][Cl] [Cisplatin, reference compound]",tumor weight / tumor growth,[2],ineffective
same,tumor weight / tumor growth,[3]; [6],inhibitory effects
same,tumor weight / tumor growth,"[3]; second experiment, CB-17 SCID mice, start 17 days post injection, SEQ ID NO:1 10 mg/kg every other day, Cisplatin 4 mg/kg weekly",inhibitory effects
"CC(=O)O[C@H]1C(=O)[C@@]2(C)[C@H]([C@H](OC(=O)c3ccccc3)[C@]3(O)C[C@H](OC(=O)[C@H](O)[C@@H](NC(=O)c4ccccc4)c4ccccc4)C(C)=C1C3(C)C)[C@]1(OC(C)=O)CO[C@@H]1C[C@@H]2O [Taxol, Paclitaxel, reference compound]",tumor growth / tumor weight,[4],no effect on tumor growth or weight
same,tumor weight / tumor growth,[2],inhibitory effects
same,tumor weight / tumor growth,[3]; [6],ineffective
"CO[C@@]12[C@H](COC(N)=O)C3=C(C(=O)C(C)=C(N)C3=O)N1C[C@@H]1N[C@@H]12 [mitomycin C, reference compound]",tumor weight / tumor growth,"[1]; FIG. 13A, mitomycin C 3.5 mg/kg/week i.v., stopped day 22",inhibitory effects
"O=C1c2c(O)ccc(O)c2C(=O)c2c(NCCNCCO)ccc(NCCNCCO)c21 [mitoxantrone, reference compound]",tumor weight / tumor growth,"[5]; lower panel FIG. 2, SEQ ID NO:1 10 mg/kg every other day 14 times, mitoxantrone 0.8 mg/kg once a week for four weeks",delay of tumor growth
same,tumor weight / tumor growth,"[5]; upper panel FIG. 2, SEQ ID NO:1 10 mg/kg every other day 15 times, mitoxantrone 2 mg/kg i.v. once, vs saline",inhibitory effects
